Test results: patent US20200148635A1 (priority 2017, published 2020)

Assays:
Pyricularia oryzae = experiment: microbe, parasite or virus in culture; format: cell-based; details: 168 h, read-out: control compared to the untreated check
Septoria lycopersici = experiment: In vitro test Septoria lycopersici (leaf spot of tomato), radial growth on Potato Dextrose Agar; format: cell-based; details: 168 h, agar plate, 25° C., seven days, read-out: control compared to the untreated check
Procedure: Septoria lycopersici (Leaf Spot of Tomato):
Compounds were dissolved in 0.3% DMSO and then added to Potato Dextrose Agar medium just prior to dispensing it into Petri dishes. 5 mL medium with compound in the desired concentration was dispensed into 60 mm sterile Petri-plates. After solidification each plate was seeded with 5 mm size mycelial disc taken form periphery of actively growing virulent culture plate. Plates were incubated in growth chambers at 25° C. temperature and 70% relative humidity for seven days and radial growth was measured.

Alternaria solani = experiment: In vitro test Alternaria solani (early blight of tomato/potato), radial growth on Potato Dextrose Agar; format: cell-based; details: 168 h, agar plate, 25° C., seven days, read-out: control compared to the untreated check
Procedure: Alternaria solani (early blight of tomato/potato): Compounds were dissolved in 0.3% DMSO and then added to Potato Dextrose Agar medium just prior to dispensing it into Petri dishes. 5 mL medium with compound in the desired concentration was dispensed into 60 mm sterile Petri-plates. After solidification each plate was seeded with 5 mm size mycelial disc taken form periphery of actively growing virulent culture plate. Plates were incubated in growth chambers at 25° C. temperature and 60% relative humidity for seven days and radial growth was measured.

Phakopsora pachyrhizi = experiment: Greenhouse Phakopsora pachyrhizi test in soybean, preventive; format: in vivo; details: preventive spray on soybean plants, inoculated one day after treatment with Phakopsora pachyrhizi, read-out: control compared to the untreated check
Procedure: Phakopsora pachyrhizi Test in Soybean
Compounds were dissolved in 2% DMSO/Acetone and then mixed with water to the calibrated spray volume of 50 mL and poured into the spray bottles for further applications.
To test the preventive activity of compounds, healthy young soybean plants raised in the greenhouse were sprayed with active compound preparation at the stated application rates inside the spray cabinets using hallowcone nozzles. One day after treatment, the plants were inoculated with spore suspension containing 2.1×10^6 Phakopsora pachyrhizi inoculum. The inoculated plants were then kept in greenhouse chamber at 25° C. temperature and 90% relative humidity for disease expression.
A visual assessment of compound's performance was carried out by rating the disease severity (0-100% scale) on treated plants on 3, 7, 10 and 15 days after application. Efficacy (% control) of the compounds was calculated by comparing the disease rating in the treatment with the one of the untreated control. The sprayed plants were also assessed for compound's plant compatibility by recording symptoms like necrosis, chlorosis and stunting.

Rhizoctonia solani = experiment: In vitro test Rhizoctonia solani (rice sheath blight/potato black scurf), radial growth on Potato Dextrose Agar; format: cell-based; details: 168 h, agar plate, 25° C., seven days, read-out: control compared to the untreated check
Procedure: Rhizoctonia solani (Rice Sheath Blight/Potato Black Scurf):
Compounds were dissolved in 0.3% DMSO and then added to Potato Dextrose Agar medium just prior to dispensing it into Petri dishes. 5 mL medium with compound in the desired concentration was dispensed into 60 mm sterile Petri-plates. After solidification each plate was seeded with 5 mm size mycelial disc taken form periphery of actively growing virulent culture plate. Plates were incubated in growth chambers at 25° C. temperature and 60% relative humidity for seven days and radial growth was measured.

SMILES | inhibition of growth at 300 ppm (Pyricularia oryzae) [%] | inhibition of growth at 300 ppm (Alternaria solani) [%] | also measured
CCN=S(C)(=O)c1cccc(Oc2cc(C)c(N=CN(C)CC)cc2C)c1 (stereo not shown) [Compound 54] | > 70 |  | 
CCN=S(=O)(CC1CC1)c1cccc(Oc2cc(Cl)c(N=CN(C)CC)cc2C)c1 (stereo not shown) [Compound 20] |  |  | inhibition of growth at 300 ppm (Septoria lycopersici): > 70%
CCN(C)C=Nc1cc(C)c(S(=O)(CC)=NC(=O)c2cccc(OC(F)(F)F)c2)cc1Cl (stereo not shown) [Compound 53] | > 70 | > 70 | 
CCN(C)C=Nc1cc(C)c(Oc2ccccc2S(=O)(=NCC2CC2)C(F)(F)F)cc1Cl (stereo not shown) [Compound 152] | > 70 |  | pest or weed control at 500 ppm (Phakopsora pachyrhizi): > 70%
CCN(C)C=Nc1cc(C)c(S(C)(=O)=NC(=O)c2cccc(C(F)(F)F)c2)cc1Cl (stereo not shown) [Compound 30] | > 70 |  | 
CCN(C)C=Nc1cc(C)c(Oc2ccc(S(C)(=O)=NC(F)(F)F)cc2)cc1Cl (stereo not shown) [Compound 134] |  | > 70 | inhibition of growth at 300 ppm (Rhizoctonia solani): > 70%; inhibition of growth at 300 ppm (Septoria lycopersici): > 70%
CCN(C)C=Nc1cc(C)c(S(=O)(CC)=NC(=O)c2cccc(C(F)(F)F)c2)cc1Cl (stereo not shown) [Compound 51] | > 70 | > 70 | 
CCN(C)C=Nc1cc(C)c(S(C)(=O)=NC(=O)c2cc(C(F)(F)F)cc(C(F)(F)F)c2)cc1Cl (stereo not shown) [Compound 31] | > 70 |  | pest or weed control at 500 ppm (Phakopsora pachyrhizi): > 70%
CCN(C)C=Nc1cc(Br)c(N=S(=O)(c2cccc(OC)c2)C(C)C)nc1C (stereo not shown) [Compound 78] |  | > 70 | 
CCN(C)C=Nc1cc(C)c(Oc2ccc(S(C)(=O)=NC#N)cc2)cc1Cl (stereo not shown) [Compound 129] |  |  | pest or weed control at 500 ppm (Phakopsora pachyrhizi): > 70%
CCN(C)C=Nc1cc(Br)c(N=S(C)(=O)c2ccc(Br)cc2)nc1C (stereo not shown) [Compound 56] | > 70 |  | 
CCN(C)C=Nc1cc(C)c(S(=O)(CC)=Nc2cc(F)c(F)c(F)c2)cc1Cl (stereo not shown) [Compound 62] | > 70 | > 70 | 
CCN(C)C=Nc1cc(C)c(S(=O)(CC)=NC(=O)c2nn(C)cc2C(F)F)cc1Cl (stereo not shown) [Compound 59] | > 70 |  | 
CCN(C)C=Nc1cc(C)c(Oc2cccc(S(=O)(=NC)C(F)(F)F)c2)cc1C (stereo not shown) [Compound 151] | > 70 |  | 
CCN(C)C=Nc1cc(C)c(S(=O)(CC)=Nc2cccc(C(F)(F)F)c2)cc1Cl (stereo not shown) [Compound 60] | > 70 |  | pest or weed control at 500 ppm (Phakopsora pachyrhizi): > 70%
CCN(C)C=Nc1cc(C)c(Cc2ccc(S(C)(=O)=NCC3CC3)cc2)cc1C (stereo not shown) [Compound 131] |  | > 70 | 
CCN(C)C=Nc1cc(C)c(S(C)(=O)=Nc2cccc(S(F)(F)(F)(F)F)c2)cc1Cl (stereo not shown) [Compound 45] |  | > 70 | inhibition of growth at 300 ppm (Septoria lycopersici): > 70%
CCN(C)C=Nc1cc(C)c(S(=O)(CC(C)C)=NCc2cccc(Cl)c2)cc1Cl (stereo not shown) [Compound 101] |  | > 70 | pest or weed control at 500 ppm (Phakopsora pachyrhizi): > 70%
CCN(C)C=Nc1cc(C)c(S(C)(=O)=NC(=O)c2ccccc2)cc1Cl (stereo not shown) [Compound 28] | > 70 |  | 
CCN(C)C=Nc1cc(C)c(N=S(=O)(c2ccccc2)C(C)C)cc1C (stereo not shown) [Compound 66] |  | > 70 | inhibition of growth at 300 ppm (Rhizoctonia solani): > 70%
CCN(C)C=Nc1cc(C)c(S(=O)(CC)=Nc2ccccc2)cc1Cl (stereo not shown) [Compound 64] |  | > 70 | 
CCN(C)C=Nc1cc(Br)c(N=S(=O)(CCC(C)C)c2ccccc2)nc1C (stereo not shown) [Compound 57] | > 70 |  | 
CCN(C)C=Nc1cc(C)c(N=S(=O)(CCC(C)C)c2ccccc2)cc1C (stereo not shown) [Compound 55] | > 70 |  | 
CCN(C)C=Nc1cc(C)c(Oc2cccc(S(C)(=O)=NCC3CC3)c2)cc1Cl (stereo not shown) [Compound 18] | > 70 |  | 
CCN(C)C=Nc1cc(C)c(S(C)(=O)=Nc2cccc(C(F)(F)F)c2)cc1Cl (stereo not shown) [Compound 36] | > 70 |  | 

SMILES | inhibition of growth at 300 ppm (Pyricularia oryzae) [%] | inhibition of growth at 300 ppm (Alternaria solani) [%] | also measured
CCN(C)C=Nc1cc(C)c(S(=O)(CC(C)C)=NCc2cccc(C(F)(F)F)c2)cc1Cl (stereo not shown) [Compound 102] | > 70 | > 70 | 
CCN(C)C=Nc1cc(C)c(S(=O)(CC(C)C)=Nc2ccc(OC)cc2)cc1Cl (stereo not shown) [Compound 111] | > 70 |  | 
CCN(C)C=Nc1cc(C)c(S(=O)(CC(C)C)=Nc2ccc(N(C)C)cc2)cc1Cl (stereo not shown) [Compound 110] | > 70 |  | 
CCN(C)C=Nc1cc(C)c(Oc2cccc(S(C)(=O)=NCC3CCC3)c2)cc1C (stereo not shown) [Compound 71] | > 70 |  | 
CCN(C)C=Nc1cc(C)c(S(C)(=O)=NC(=O)c2ccc(F)c(Cl)c2)cc1Cl (stereo not shown) [Compound 29] | > 70 |  | 
CCN(C)C=Nc1cc(C)c(S(C)(=O)=Nc2ccc(Cl)c(C(F)(F)F)c2)cc1Cl (stereo not shown) [Compound 41] | > 70 |  | 
CCN(C)C=Nc1cc(C)c(Oc2cccc(S(C)(=O)=NCC#N)c2)cc1C (stereo not shown) [Compound 125] | > 70 | > 70 | 
CCN(C)C=Nc1cc(C)c(S(C)(=O)=NC(=O)c2ccc(F)c(F)c2)cc1Cl (stereo not shown) [Compound 34] | > 70 |  | pest or weed control at 500 ppm (Phakopsora pachyrhizi): > 70%
CCN(C)C=Nc1cc(Br)c(N=S(C)(=O)c2ccccc2)nc1C (stereo not shown) [Compound 47] | > 70 |  | pest or weed control at 500 ppm (Phakopsora pachyrhizi): > 70%
CCN(C)C=Nc1cc(C)c(Cc2ccccc2S(C)(=N)=O)cc1C (stereo not shown) [Compound 136] | > 70 |  | 
CCN=S(C)(=O)c1ccc(Cc2cc(C)c(N=CN(C)CC)cc2C)cc1 (stereo not shown) [Compound 130] |  | > 70 | 
CCN(C)C=Nc1cc(C)c(N=S(=O)(c2cccc(OC)c2)C(C)C)cc1C (stereo not shown) [Compound 75] | > 70 |  | pest or weed control at 500 ppm (Phakopsora pachyrhizi): > 70%
CCN(C)C=Nc1cc(C)c(S(=O)(CC(C)C)=NCc2ccc(F)c(Cl)c2)cc1Cl (stereo not shown) [Compound 100] | > 70 |  | 
CCN(C)C=Nc1cc(Br)c(N=S(=O)(CC2CC2)c2cccc(F)c2)nc1C (stereo not shown) [Compound 106] | > 70 |  | pest or weed control at 500 ppm (Phakopsora pachyrhizi): > 70%
CCN(C)C=Nc1cc(Br)c(Oc2cccc(S(C)(=O)=NCC3CCC3)c2)nc1C (stereo not shown) [Compound 69] | > 70 |  | 
CCN(C)C=Nc1cc(C)c(Oc2cccc(S(=N)(=O)C(F)(F)F)c2)cc1C (stereo not shown) [Compound 148] | > 70 |  | 
CCN(C)C=Nc1cc(C)c(S(=O)(CC)=NC(=O)c2ccccc2)cc1Cl (stereo not shown) [Compound 58] | > 70 |  | 
CCN(C)C=Nc1cc(C)c(S(=O)(CC)=Nc2cccc(OC(F)(F)F)c2)cc1Cl (stereo not shown) [Compound 61] |  | > 70 | inhibition of growth at 300 ppm (Septoria lycopersici): > 70%; pest or weed control at 500 ppm (Phakopsora pachyrhizi): > 70%
CCN(C)C=Nc1cc(C)c(Cc2ccccc2S(C)(=O)=NCC2CC2)cc1C (stereo not shown) [Compound 138] | > 70 |  | 
CCN(C)C=Nc1cc(C)c(Nc2ccc(S(C)(=O)=NCC3CC3)cc2)cc1C (stereo not shown) [Compound 139] |  | > 70 | inhibition of growth at 300 ppm (Septoria lycopersici): > 70%
CCN(C)C=Nc1cc(C)c(S(C)(=O)=Nc2cccc(OC)c2)cc1Cl (stereo not shown) [Compound 24] | > 70 |  | 
CCN(C)C=Nc1cc(C)c(S(C)(=O)=NC(=O)c2cccc(Cl)c2)cc1Cl (stereo not shown) [Compound 40] | > 70 |  | 
CCN(C)C=Nc1cc(C)c(S(=O)(CC(C)C)=NC(=O)c2ccc(F)c(Cl)c2)cc1Cl (stereo not shown) [Compound 72] | > 70 |  | 
CCN(C)C=Nc1cc(C)c(S(=O)(CC)=NC(=O)c2cccc(F)c2)cc1Cl (stereo not shown) [Compound 52] |  | > 70 | 
CCN(C)C=Nc1cc(C)c(Cc2ccccc2S(C)(=O)=NC)cc1C (stereo not shown) [Compound 137] | > 70 |  | 
